Test [1] concerns the target T1, B-RAF V600E (Homo sapiens, UniProt P15056, V600E).
T1 construct: expressed in transfected cells; host or cells: T-Rex 293 cells (Invitrogen #R71007)
The experiment in a line: Target protein degradation, assay C: T-Rex 293 cells, HA-BRAF_V600E, 384 well format. Type of test: cell-based. The settings on record: T-Rex 293 HA-BRAF_V600E cells, 24 hours, Examples 83-269; for DC50: Assay C; for Dmax: T-REx-293, Assay C. Summed up: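 T-Rex 293 cells stably expressing doxycycline-induced (1 ng/mL) HA-BRAF V600E were treated 24 h at 37 °C with compound (300 nM–5 pM, 11 points, 0.5% DMSO). HA immunofluorescence was quantified by high-content imaging to give DC50 and Dmax (% of control); nuclei counts versus DMSO gauged toxicity.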

The target of test [2] is T2, B-RAF G466V (Homo sapiens, UniProt P15056, G466V).
T2 construct: expressed in transfected cells; host or cells: T-Rex 293 cells (Invitrogen #R71007)
T2 sequence (P15056 whole entry G466V): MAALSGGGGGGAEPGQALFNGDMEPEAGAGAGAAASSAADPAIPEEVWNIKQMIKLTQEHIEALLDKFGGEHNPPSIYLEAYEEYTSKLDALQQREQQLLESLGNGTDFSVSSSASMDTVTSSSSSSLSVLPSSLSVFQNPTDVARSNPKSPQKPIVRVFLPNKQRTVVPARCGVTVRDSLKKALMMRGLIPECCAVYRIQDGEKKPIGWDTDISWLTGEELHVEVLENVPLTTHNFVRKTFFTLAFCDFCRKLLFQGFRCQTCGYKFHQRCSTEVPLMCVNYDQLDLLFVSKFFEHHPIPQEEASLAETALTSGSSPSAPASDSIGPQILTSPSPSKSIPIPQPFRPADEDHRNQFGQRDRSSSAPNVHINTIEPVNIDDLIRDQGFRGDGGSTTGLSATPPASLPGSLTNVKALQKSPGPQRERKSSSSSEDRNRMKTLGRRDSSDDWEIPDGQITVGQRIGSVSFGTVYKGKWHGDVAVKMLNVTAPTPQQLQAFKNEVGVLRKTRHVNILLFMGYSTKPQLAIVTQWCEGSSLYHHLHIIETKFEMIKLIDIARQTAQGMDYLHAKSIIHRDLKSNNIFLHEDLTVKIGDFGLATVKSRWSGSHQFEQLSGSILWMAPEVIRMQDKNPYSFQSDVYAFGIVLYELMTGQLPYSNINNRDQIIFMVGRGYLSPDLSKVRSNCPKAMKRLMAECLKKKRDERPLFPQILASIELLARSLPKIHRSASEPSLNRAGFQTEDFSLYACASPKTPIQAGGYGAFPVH
The experiment in a line: Target protein degradation, assay D: T-Rex 293 cells, HA-BRAF_G466V, 384 well format. It counts as cell-based. The settings on record: T-Rex 293 HA-BRAF_G466V cells, 24 hours, Examples 83-269; for DC50: Assay D; for Dmax: T-REx-293, Assay D. Summed up:
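T-Rex 293 cells stably expressing doxycycline-induced (1 ng/mL) HA-BRAF G466V treated 24 h at 37 °C with PROTACs, 11-point 1:3 dilution, 300 nM to 5 pM final, 0.5% DMSO. Fixed cells immunostained for HA and imaged by high-content microscopy; DC50 and Dmax (% of control) derived, toxicity from nuclei counts versus DMSO.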

The structures appear in SMILES notation.

T1 sequence (P15056 whole entry V600E): as the sequence (P15056 whole entry G466V) above, with V466G, V600E counted along it

The DC50 is the concentration at which degradation of the target reaches its halfway point. As usually defined, the Dmax is the greatest extent of degradation seen. Low values mean shallow degradation, high ones deep degradation. With `COc1cc(N2CC(CN3CCN(c4ccc(-n5cnc6ccc(Oc7c(F)ccc(NS(=O)(=O)N8CC[C@@H](F)C8)c7C#N)cc6c5=O)cc4)CC3)C2)cc2c1C(=O)N([C@@H]1CCC(=O)NC1=O)C2` [Example 237, (3R)-N-(2-cyano-3-{[3-(4-{4-[(1-{2-[(3R)-2,6-dioxopiperidin-3-yl]-7-methoxy-1-oxo-2,3-dihydro-1H-isoindol-5-yl}azetidin-3-yl)methyl]piperazin-1-yl}phenyl)-4-oxo-3,4-dihydroquinazolin-6-yl]oxy}-4-fluorophenyl)-3-fluoropyrrolidine-1-sulfonamide], the DC50 in test [1] was in the range of 0.05 to 0.5 µM; in test [2], 0.001 to 0.01 µM. Further, the Dmax in test [1] is 35 to 70%; in test [2], at least 70%.
In test [1], `N#Cc1c(NS(=O)(=O)N2CC[C@@H](F)C2)ccc(F)c1Oc1ccc2ncn(-c3cccc(C4CCN(CC5CN(c6ccc7c(c6)CN([C@H]6CCC(=O)NC6=O)C7=O)C5)CC4)c3)c(=O)c2c1` [Example 255, (3R)-N-(2-cyano-3-{[3-(3-{1-[(1-{2-[(3S)-2,6-dioxopiperidin-3-yl]-1-oxo-2,3-dihydro-1H-isoindol-5-yl}azetidin-3-yl)methyl]piperidin-4-yl}phenyl)-4-oxo-3,4-dihydroquinazolin-6-yl]oxy}-4-fluorophenyl)-3-fluoropyrrolidine-1-sulfonamide] had a DC50 of 0.05 to 0.5 µM and a Dmax of 35 to 70%. Besides, in test [2], the DC50 was 0.001 to 0.01 µM and the Dmax was at least 70%.
In test [1], `N#Cc1c(NS(=O)(=O)N2CC[C@@H](F)C2)ccc(F)c1Oc1ccc2ncn(-c3ccc(N4CCC5(CC4)CN(c4cccc6c4CN(C4CCC(=O)NC4=O)C6=O)C5)nc3)c(=O)c2c1` (stereo partly drawn) [Example 165, (3R)-N-(2-cyano-3-{[3-(6-{2-[2-(2,6-dioxopiperidin-3-yl)-1-oxo-2,3-dihydro-1H-isoindol-4-yl]-2,7-diazaspiro[3.5]nonan-7-yl}pyridin-3-yl)-4-oxo-3,4-dihydroquinazolin-6-yl]oxy}-4-fluorophenyl)-3-fluoropyrrolidine-1-sulfonamide] showed a half-maximal degradation concentration (DC50) of at most 0.005 µM and a Dmax of at most 35%. Besides, in test [2], the DC50 was over 0.03 µM and the Dmax is at most 35%.
`CN(c1ccc(-n2cnc3ccc(Oc4c(F)ccc(NS(=O)(=O)N5CC[C@@H](F)C5)c4C#N)cc3c2=O)cc1)C1CCC(N2CCN(c3ccc4c(c3)CN([C@H]3CCC(=O)NC3=O)C4=O)CC2)CC1` (stereo partly drawn) [Example 225, (3R)-N-(2-cyano-4-fluoro-3-{[3-(4-{methyl[(1s,4s)-4-(4-{2-[(3S)-2,6-dioxopiperidin-3-yl]-1-oxo-2,3-dihydro-1H-isoindol-5-yl}piperazin-1-yl)cyclohexyl]amino}phenyl)-4-oxo-3,4-dihydroquinazolin-6-yl]oxy}phenyl)-3-fluoropyrrolidine-1-sulfonamide] came in with a DC50 in test [1] of over 0.5 µM. In addition, in test [2], the DC50 was 0.01 to 0.03 µM and the Dmax lay in the range of 35 to 70%.
In test [1], `N#Cc1c(NS(=O)(=O)N2CC[C@@H](F)C2)ccc(F)c1Oc1ccc2ncn(-c3cnc(C4(N5CCN(CC6CN(c7ccc(C8CCC(=O)NC8=O)cc7F)C6)CC5)CC4)nc3)c(=O)c2c1` (stereo partly drawn) [Example 105, (3R)-N-(2-cyano-3-{[3-(2-{1-[4-({1-[4-(2,6-dioxopiperidin-3-yl)-2-fluorophenyl]azetidin-3-yl}methyl)piperazin-1-yl]cyclopropyl}pyrimidin-5-yl)-4-oxo-3,4-dihydroquinazolin-6-yl]oxy}-4-fluorophenyl)-3-fluoropyrrolidine-1-sulfonamide] yielded a DC50 of 0.005 to 0.05 µM and a Dmax of 35 to 70%. Besides, in test [2], the DC50 was in the range of 0.001 to 0.01 µM and the Dmax was at most 35%.
In test [1], `N#Cc1c(NS(=O)(=O)N2CC[C@@H](F)C2)ccc(F)c1Oc1ccc2ncn(-c3ccc(N4CCC(CN5CC6(C5)CN(c5ccc7c(c5)C(=O)N(C5CCC(=O)NC5=O)C7=O)C6)CC4)nc3)c(=O)c2c1` (stereo partly drawn) [Example 171, (3R)-N-{2-cyano-3-[(3-{6-[4-({6-[2-(2,6-dioxopiperidin-3-yl)-1,3-dioxo-2,3-dihydro-1H-isoindol-5-yl]-2,6-diazaspiro[3.3]heptan-2-yl}methyl)piperidin-1-yl]pyridin-3-yl}-4-oxo-3,4-dihydroquinazolin-6-yl)oxy]-4-fluorophenyl}-3-fluoropyrrolidine-1-sulfonamide] showed a DC50 of 0.05 to 0.5 µM and a Dmax of 35 to 70%. In test [2], this compound yielded a DC50 of 0.001 to 0.01 µM and a Dmax of 35 to 70%.
`CN(c1ccc(-n2cnc3ccc(Oc4c(F)ccc(NS(=O)(=O)N5CC[C@@H](F)C5)c4C#N)cc3c2=O)cc1)[C@H]1CC[C@@H](N2CCN(c3ccc4c(c3)CN([C@H]3CCC(=O)NC3=O)C4=O)CC2)CC1` [Example 224, (3R)-N-(2-cyano-4-fluoro-3-{[3-(4-{methyl[(1r,4r)-4-(4-{2-[(3S)-2,6-dioxopiperidin-3-yl]-1-oxo-2,3-dihydro-1H-isoindol-5-yl}piperazin-1-yl)cyclohexyl]amino}phenyl)-4-oxo-3,4-dihydroquinazolin-6-yl]oxy}phenyl)-3-fluoropyrrolidine-1-sulfonamide]: in test [1], the DC50 lay in the range of 0.05 to 0.5 µM and the Dmax was at most 35%. In test [2], the DC50 lay in the range of 0.01 to 0.03 µM and the Dmax lay in the range of 35 to 70%.
With `N#Cc1c(NS(=O)(=O)N2CC[C@@H](F)C2)ccc(F)c1Oc1ccc2ncn(-c3cnc(N4CCC(CN5CCC6(CC5)CCN(c5ccc7c(c5)C(=O)N(C5CCC(=O)NC5=O)C7=O)CC6)CC4)nc3)c(=O)c2c1` (stereo partly drawn) [Example 129, (3R)-N-{2-cyano-3-[(3-{2-[4-({9-[2-(2,6-dioxopiperidin-3-yl)-1,3-dioxo-2,3-dihydro-1H-isoindol-5-yl]-3,9-diazaspiro[5.5]undecan-3-yl}methyl)piperidin-1-yl]pyrimidin-5-yl}-4-oxo-3,4-dihydroquinazolin-6-yl)oxy]-4-fluorophenyl}-3-fluoropyrrolidine-1-sulfonamide], in test [1], the DC50 was 0.05 to 0.5 µM and the Dmax was in the range of 35 to 70%. In test [2], this compound came in with a DC50 of 0.001 to 0.01 µM and a Dmax of 35 to 70%.
In test [1], `N#Cc1c(NS(=O)(=O)N2CC[C@@H](F)C2)ccc(F)c1Oc1ccc2ncn(-c3cnc(N4CCC(CC5CCCN5c5ccc6c(c5)C(=O)N(C5CCC(=O)NC5=O)C6=O)CC4)nc3)c(=O)c2c1` (stereo partly drawn) [Example 156, (3R)-N-{2-cyano-3-[(3-{2-[4-({1-[2-(2,6-dioxopiperidin-3-yl)-1,3-dioxo-2,3-dihydro-1H-isoindol-5-yl]pyrrolidin-2-yl}methyl)piperidin-1-yl]pyrimidin-5-yl}-4-oxo-3,4-dihydroquinazolin-6-yl)oxy]-4-fluorophenyl}-3-fluoropyrrolidine-1-sulfonamide] registered a DC50 of 0.05 to 0.5 µM and a Dmax of 35 to 70%. In test [2], this compound gave a DC50 of over 0.03 µM.
In test [1], `Cn1c(=O)n(C2CCC(=O)NC2=O)c2cccc(N3CCC(CN4CCN(c5ccc(-n6cnc7ccc(Oc8c(F)ccc(NS(=O)(=O)N9CC[C@@H](F)C9)c8C#N)cc7c6=O)cc5)CC4)CC3)c21` (stereo partly drawn) [Example 98, (3R)-N-{2-cyano-3-[(3-{4-[4-({1-[1-(2,6-dioxopiperidin-3-yl)-3-methyl-2-oxo-2,3-dihydro-1H-1,3-benzodiazol-4-yl]piperidin-4-yl}methyl)piperazin-1-yl]phenyl}-4-oxo-3,4-dihydroquinazolin-6-yl)oxy]-4-fluorophenyl}-3-fluoropyrrolidine-1-sulfonamide] showed a DC50 of 0.05 to 0.5 µM and a Dmax of 35 to 70%. In test [2], this compound returned a DC50 of 0.001 to 0.01 µM and a Dmax of 35 to 70%.

The record behind these values is patent US11957759B1, “Rapidly accelerated fibrosarcoma (RAF) degrading compounds and associated methods of use” (Arvinas Operations, Inc., priority 2022, dated 2024).
